{"source": "patent US10364415B2", "about": "“1,4-dioxane-degrading bacteria culture method, medium, and 1,4-dioxane treatment method using 1,4-dioxane-degrading bacteria” (TAISEI CORPORATION, priority 2014, dated 2019)", "key": {"SDIMO-bearing bacteria": {"system": "SDIMO-bearing bacteria", "assay": "PCR detection of SDIMO gene in contaminated soil cultured with diethylene glycol (Example 9)", "assay_type": "cell-based", "settings": "seven contaminated soil samples, diethylene glycol 20 g/L, six days", "procedure": "The proliferation of SDIMO-bearing bacteria by culturing in a medium supplemented with diethylene glycol was investigated in seven types of soil collected from different places at sites contaminated with 1,4-dioxane. It should be noted that the proliferation of SDIMO-bearing bacteria was evaluated by an increase in PCR amplification products of about 420 bp derived from a SDIMO-encoding gene (a SDIMO gene).\nThe soil with a wet weight of 10 g was added to an Erlenmeyer flask of 300 ml in which the liquid medium of 90 ml (medium composition: K2HPO4: 1 g/L, (NH4)2SO4: 1 g/L, NaCl: 50 mg/L, MgSO4.7H2O: 200 mg/L, FeCl3: 10 mg/L, CaCl2: 50 mg/L, pH: 7.0) was placed. Then, diethylene glycol was added such that the final concentration became 20 g/L and the rotary shaking culture was carried out at 28° C. and 120 rpm.\nThe samples were collected immediately after diethylene glycol was added and after six days by 5 ml, respectively, and a supernatant was removed by centrifugation (10,000×g, 4° C., 5 min), and then DNA was recovered from the soil of 0.5 g (of wet weight). For DNA extraction, a soil DNA extraction kit (manufactured by Nippon Gene Co., Ltd., product name: ISOIL for Beads Beating) was used and the extracted DNA was purified using a DNA fragment purification kit (Toyobo Co., Ltd., product name: MagExtractor-PCR & Gel Clean up-). […]"}, "strain D17": {"system": "strain D17", "assay": "Bacterial cell concentration measurement at different diethylene glycol concentrations (Examples 3 to 7)", "assay_type": "cell-based, Pseudonocardia sp. D17", "settings": "diethylene glycol increased from 1 g/L to 10 g/L, seven days", "procedure": "100 mL of a liquid medium (medium composition: K2HPO4: 1 g/L, (NH4)2SO4: 1 g/L, NaCl: 50 mg/L, MgSO4.7H2O: 200 mg/L, FeCl3: 10 mg/L, CaCl2: 50 mg/L, pH: 7.3) containing diethylene glycol of 1 g/L was added to an Erlenmeyer flask equipped with baffles with a volume of 300 mL. Next, strain D17 which was inoculated in the MGY medium in advance was cultured (initial bacterial cell concentration: 111 mg-dry cell/L) and was subjected to the rotary shaking culture at 28° C. and 120 rpm for seven days.\nDegradation bacteria were cultured in the same manner as in Example 3 except that the concentration of diethylene glycol in the liquid medium was set to be 5 g/L. […]\nThe bacterial cells in the culture solution were collected as a filter residue through suction filtration after the cultivation was finished and the bacterial cells were dried at 105° C. overnight, and then the weight of the collected bacterial cells was measured. The bacterial cell concentration (mg-dry cell/L) was obtained from the value of the measured bacterial cell weight. […] The proliferation property of the bacterial cells was evaluated by Δ bacterial cell concentration which was obtained by subtracting the initial bacterial cell concentration from the bacterial cell concentration on the seventh day of culturing."}, "[1]": {"system": "strain CB1190, strain D11, and strain D17", "assay": "Proliferation of 1,4-dioxane-degrading bacteria in the presence of diethylene glycol (Example 1)", "assay_type": "cell-based", "settings": "28° C., nine days", "procedure": "Strain CB1190, strain D11, and strain D17 were used as 1,4-dioxane-degrading bacteria. Each degradation bacterium was cultured for ten days using a CGY medium (casitone: 5 g/L, glycerin: 5 g/L, yeast extract: 1 g/L) containing 1,4-dioxane at a concentration of 500 mg/L. After cultivation, the bacterial cells were harvested and washed with a centrifugal separator, and then mixed with 20 mL of physiological saline, in such a manner that an inoculum suspension was obtained. It should be noted that an inoculum suspension (OD600: approximately 10) which was turbidity-standardized using a spectrophotometer was used as the inoculum suspension. […]\nThe bacterial cells in the culture solution were collected as […] by suction filtration after the culture was finished. Then, the […] was dried at 105° C. overnight, and the weight of the bacterial cells was measured, in such a manner that the bacterial cell concentration (mg-dry cell/L) was obtained. Proliferation of the bacterial cells was evaluated by Δ bacterial cell concentration obtained by subtracting the initial bacterial cell concentration from the bacterial cell concentration on the ninth day of culture. […]"}}}
{"smiles": "OCCOCCO", "note": "[diethylene glycol]", "values": [{"measurement": "PCR amplification product of about 420 bp (SDIMO gene) before and after culturing", "setting": "SDIMO-bearing bacteria", "value": "preferentially proliferated SDIMO-bearing bacteria"}, {"measurement": "bacterial cell concentration", "setting": "strain D17", "value": "increased"}, {"measurement": "proliferation properties (Δ bacterial cell concentration)", "setting": "[1]; diethylene glycol 1 g/L as carbon source, all three degradation bacteria", "value": "could grow using diethylene glycol as a carbon source"}, {"measurement": "proliferation properties (Δ bacterial cell concentration)", "setting": "[1]; diethylene glycol 1 g/L, strain D17", "value": "extremely high proliferation properties"}]}
